Earlier results, collected in patent US10813882B1, “In situ gelling formulation for reduced initial drug burst” (King Abdulaziz University, priority 2019, dated 2020).

Tests used:
[1] = in vivo
[2] = tested on: plasma protein

## CC(C)c1nc(N(C)S(C)(=O)=O)nc(-c2ccc(F)cc2)c1/C=C/[C@@H](O)C[C@@H](O)CC(=O)O [RSV, Rosuvastatin]
[1]
  bioavailability: 20%
  effect of food on the amount absorbed: does not affect
  time to maximum plasma level: 3 to 5 h
DMSO, dimethyl formamide
  solubility in organic solvent such as DMSO and DMF: soluble
ethanol
  solubility in ethanol: marginally soluble
[2]
  bound to plasma protein: 88%
